Experimental data reported in patent publication US10067145B2, “Method for removing genomically unstable IPS cells and synthetic peptide used therefor” (TOAGOSEI CO., LTD., priority 2013, dated 2018).
No end group written: not given here.

Tests used:
[1] = system: human iPS cell strain 201B2 (chromosome 12 trisomy); assay: Evaluation of calreticulin expression inducing activity of synthetic peptides (immunofluorescence antibody assay), genomically unstable iPS cells; type: cell-based; settings: peptide 10 μM in mTeSR 1 medium, 5 days, medium replaced every day; anti-calreticulin antibody, confocal laser microscope
Excerpt: (§1) In the following Examples, iPS cells were used as an example of pluripotent stem cells. Specifically, cells used for tests were a genomically stable (specifically without a chromosome aberration) human iPS cell strain (clone: 201B7, hereinafter also merely referred to as 201B7) and a human iPS cell strain (clone: 201B2 hereinafter also merely referred to as 201B2) containing genomically unstable (specifically, chromosome 12 is triploid (trisomy)) cells. Both 201B7 and 201B2 are clones of iPS cells established from the same human fibroblasts (source: Takahashi K et al., Cell, 131, 861-872 (2007)). The iPS cells were provided by the Center for iPS Cell Research and Application, Kyoto University. […]
(§2) A primary antibody diluted solution prepared by adjusting a primary antibody, an anti-calreticulin monoclonal [FMC75] antibody (murine, available from Abeam, Cat No. ab22683, Lot No. GR56669-4), to a final concentration of 4×10^−3 mg/mL in 1% BSA/PBS (−) (PBS (−) containing 1% BSA) was added to the culture vessel of the iPS cells, and the mixture was left to stand overnight at 4° C. or 2 hours at room temperature. […] Thereafter, mounting was carried out with a DAPI (4′,6-diamidino-2-phenylindole)-containing mounting medium (available from Life Technologies) and a cover glass and fluorescence was observed under a confocal laser microscope. […]

[2] = system: human iPS cell strain 201B7; assay: Evaluation of calreticulin expression inducing activity of synthetic peptides (immunofluorescence antibody assay), genomically stable iPS cells; type: cell-based; settings: peptide 10 μM in mTeSR 1 medium, 5 days, medium replaced every day; anti-calreticulin antibody, confocal laser microscope
Excerpt: as §1, §2

KKRTLRKNDRKKR GG CRAKAGDPC (KKRTLRKNDRKKRGGCRAKAGDPC-NH2; cysteine pairing not given here) [sample 1, linear synthetic calreticulin expression inducing peptide, 24 residues]
expression level of calreticulin in 201B2 (fluorescence of the label detecting calreticulin) compared to cells without addition of peptides [1]: significantly increased
expression level of calreticulin in 201B7 (fluorescence of the label detecting calreticulin) compared to cells without addition of peptides [2]: almost no increase
